Earlier results as cited in patent US6699871B2, “Beta-amino heterocyclic dipeptidyl peptidase inhibitors for the treatment or prevention of diabetes” (Merck & Co., Inc., priority 2001, dated 2004).

Columns and labels:
[1] = system: hematopoiesis; details: mouse, cyclophosphamide-induced neutropenia
[2] = molecular target: T1, DP-IV (Homo sapiens, UniProt P27487)
T1 construct: GRF is rapidly degraded in plasma to GRF[3-44]
T1 sequence (P27487 whole entry): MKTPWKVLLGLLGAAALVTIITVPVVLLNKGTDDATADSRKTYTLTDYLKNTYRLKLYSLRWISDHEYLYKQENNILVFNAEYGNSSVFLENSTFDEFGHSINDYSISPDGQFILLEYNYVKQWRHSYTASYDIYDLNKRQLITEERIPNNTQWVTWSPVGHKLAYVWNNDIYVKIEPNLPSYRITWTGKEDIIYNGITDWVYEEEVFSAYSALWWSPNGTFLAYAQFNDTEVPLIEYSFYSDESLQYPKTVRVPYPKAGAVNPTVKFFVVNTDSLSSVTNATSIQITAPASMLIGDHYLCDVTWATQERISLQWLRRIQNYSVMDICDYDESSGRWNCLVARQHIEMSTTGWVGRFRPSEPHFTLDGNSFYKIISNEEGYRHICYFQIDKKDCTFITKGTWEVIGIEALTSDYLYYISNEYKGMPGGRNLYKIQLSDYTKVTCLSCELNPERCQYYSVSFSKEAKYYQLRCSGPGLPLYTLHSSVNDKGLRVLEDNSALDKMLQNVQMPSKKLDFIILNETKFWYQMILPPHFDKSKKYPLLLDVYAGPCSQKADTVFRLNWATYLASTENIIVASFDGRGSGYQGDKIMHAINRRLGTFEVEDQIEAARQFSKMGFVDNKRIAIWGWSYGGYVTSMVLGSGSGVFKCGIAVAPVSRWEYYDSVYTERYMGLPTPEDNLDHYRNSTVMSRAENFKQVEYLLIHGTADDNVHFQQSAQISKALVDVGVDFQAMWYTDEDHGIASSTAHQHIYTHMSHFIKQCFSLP

## CC(C)[C@H](N)C(=O)N1CCC[C@H]1B(O)O [Val-Boro-Pro]
[1]
  effect on hematopoiesis: stimulated hematopoiesis

## CC[C@H](C)[C@H](N)C(=O)N1CCC[C@H]1C(=O)N[C@H](C(=O)O)[C@@H](C)CC [diprotin A]
[2]
  degradation of GRF in plasma to GRF[3-44]: prevented
